From ChEMBL document CHEMBL1159272, “Antimicrobial metabolites from a bacterial symbiont” (1995)
Converted amounts (≈) assume the structure as drawn.

Experiments:
Type in all cases: functional
[1] = tested on: Aspergillus flavus; experiment: Antifungal activity against Aspergillus flavus ATCC 24133 after 24 hrs by serial dilution method; settings: ATCC 24133, 24 h
[2] = tested on: Cryptococcus neoformans; experiment: Antifungal activity against Cryptococcus neoformans ATCC 14117 after 24 hrs by serial dilution method; settings: ATCC 14117, 24 h
[3] = tested on: Candida tropicalis; experiment: Antifungal activity against Candida tropicalis CBS94 after 24 hrs by serial dilution method
[4] = tested on: Botrytis cinerea; experiment: Antifungal activity against Botrytis cinerea after 48 hrs by serial dilution method
[5] = tested on: Globisporangium ultimum; experiment: Antifungal activity against Pythium ultimum after 24 hrs by serial dilution method
[6] = tested on: Phytophthora infestans; experiment: Antifungal activity against Phytophthora infestans after 96 hrs by serial dilution method
[7] = tested on: Aspergillus fumigatus; experiment: Antifungal activity against Aspergillus fumigatus ATCC 13073 after 24 hrs by serial dilution method; settings: ATCC 13073, 24 h

Compound | MIC [1] | MIC [2] | MIC [3] | MIC [4] | MIC [5] | MIC [6] | MIC [7]
CC(C)C(=O)C(O)Cc1c[nH]c2ccccc12 (stereo unspecified) | > 100 µg/mL | > 100 µg/mL | > 100 µg/mL | 12 µg/mL (≈ 51.9 µM) | > 100 µg/mL | 50 µg/mL (≈ 216 µM) | > 100 µg/mL
CC(=O)OC(Cc1c[nH]c2ccccc12)C(=O)C(C)C (stereo unspecified) | > 100 µg/mL | 25 µg/mL (≈ 91.5 µM) | > 100 µg/mL | > 100 µg/mL | – | – | > 100 µg/mL
CCC(C)C(=O)C(Cc1c[nH]c2ccccc12)OC(C)=O (stereo unspecified) | > 100 µg/mL | 50 µg/mL (≈ 174 µM) | > 100 µg/mL | > 100 µg/mL | > 100 µg/mL | 100 µg/mL (≈ 348 µM) | > 100 µg/mL
CCC(C)C(=O)C(O)Cc1c[nH]c2ccccc12 (stereo unspecified) | > 100 µg/mL | > 100 µg/mL | > 100 µg/mL | 12 µg/mL (≈ 48.9 µM) | > 100 µg/mL | 100 µg/mL (≈ 408 µM) | > 100 µg/mL
